Experiments:
acpP mRNA = assay: RNA-seq of KFF-ASO-treated Salmonella (acpP mRNA depletion); assay type: cell-based, Salmonella enterica serovar Typhimurium strain SL1344; design: key to acpP depletion (RNA-seq): +++: Effect strength is represented by additional (+) signs.; ++: Effect strength is represented by additional (+) signs.; Effect strength is represented by additional (+) signs; conditions: 15 min; for acpP depletion (RNA-seq): ASO conjugated to the carrier peptide, 5 µM, summary grade
Description: To assay bacterial responses to the different ASO modalities and to determine target mRNA depletion in cellulo, we performed RNA-seq analysis of Salmonella challenged with 5 µM KFF-ASO conjugates for 15 min. We first evaluated two individual RNA-seq experiments by principal component analysis (PCA) and observed three distinct clusters (Fig. 5). The PCA cluster 1 grouped the water control, RNA-MOE, RNA-OMe, and the PNA-treated conditions. […] Cluster 2 grouped the other negASOs. As we have previously observed for KFF peptide exposure ([Popella et al. 2021], [2022]), these treatments led to the activation of a cationic antimicrobial peptide (CAMP) response, including induction of the PhoP/Q and PmrA/B regulons involved in remodeling LPS, and the CpxR regulon that responds to envelope stress (Fig. 7). […] These treatments also led to the down-regulation of genes responsible for the destruction of superoxide anion radicals (sodB) and those involved in manganese efflux (yebN) (Figs. 6 and 7). Finally, cluster 3 grouped samples of the unconjugated peptides and the PMO treatment. Similarly to cluster 2, these activated a strong CAMP response (Fig. 7).
RNA isolation was performed using previously published protocols ([Popella et al. 2021], [2022]). Bacterial overnight cultures were diluted 1:100 in fresh MHB and grown to OD600 0.5. The cultures were diluted to ∼10^6 cfu/mL in noncation-adjusted MHB. […]
Total RNA was purified from bacterial pellets using the miRNeasy Mini kit (Qiagen) according to protocol #3 described in [Popella et al. (2021]). […] RNA concentration was measured with a NanoDrop spectrophotometer.
For transcriptomic analyses, RNA samples were processed and subjected to RNA-seq at the Core Unit SysMed (University of Würzburg). […] Sequencing of pooled libraries, spiked with 5% PhiX control library, was performed at 10 million reads/sample in single-end mode with 75 nt read length on the NextSeq 500 platform (Illumina) using High output sequencing kits. […]

[1] = test system: Salmonella outer membrane; assay: Outer membrane permeabilization (NPN fluorescence); assay type: cell-based, Salmonella enterica serovar Typhimurium strain SL1344; design: key to Outer membrane permeation: +++: Effect strength is represented by additional (+) signs.; ++: Effect strength is represented by additional (+) signs.; Effect strength is represented by additional (+) signs; conditions: for Outer membrane permeation: ASO conjugated to the carrier peptide, 10 µM, NPN fluorescence, summary grade; for Outer membrane permeabilization, NPN fluorescence (in words): KFF-ASOs 10 µM, CTAB 10 µM, PMXB 0.4 µM, added after 14 min
Description: Because the negASOs are ineffective in bacterial cells despite their activity in cell-free systems, we investigated if these ASOs affected the ability of the KFF carrier peptide to induce OM permeabilization. Therefore, we used the hydrophobic fluorophore N-phenylnaphthylamine (NPN), a dye that turns fluorescent after binding to hydrophobic regions within cell membranes. This only occurs in cells with a compromised OM ([Ghosh et al. 2016]; [Ellis et al. 2019]). […] However, when conjugated to negASOs, the KFF carrier is unable to permeabilize the OM (Fig. 10). This could potentially be due to electrostatic interactions between the negASOs and the positively charged KFF.
The experiments were performed by modifying previously published protocols ([Ghosh et al. 2016]; [Ellis et al. 2019]; [Zheng et al. 2021]). Salmonella (WT SL1344, JVS-1574) were grown overnight in 4 mL MHB medium at 37°C (with shaking at 220 rpm). Then the culture was diluted 1:100 and grown until OD600 0.5 (∼2 × 10^8 cfu/mL). This culture was harvested and washed two times with 5 mM HEPES and further diluted to OD600 0.2 in 5 mM HEPES supplemented with 5 mM Glucose (pH 7.2). These cells were then incubated with NPN (Sigma) at a final concentration of 10 µM. One hundred and ninety microliters of NPN-treated cells were transferred into 96-well back plates with transparent bottoms and fluorescence (excitation = 350 nm, emission = 420 nm) was recorded for 60 min (reading was performed every minute) using a Synergy H1 plate reader (Biotek). On the 14th minute, 10 µL of the test compounds (10 µM final concentration) was added into the wells. CTAB (Sigma) 10 µM (final concentration) or PMXB (Sigma) (final concentration of 0.4 µM) were used as positive controls, while water was used as negative control. The fluorescence of the wells was monitored using the same settings as above. The plots were created using OrginPro 2023. The experiment was performed twice and Figure 10 is a representative example of two independent experiments.

Substance	acpP depletion (RNA-seq) (acpP mRNA)	Outer membrane permeation [1]	Outer membrane permeabilization, NPN fluorescence (in words) [1]	acpP mRNA levels after treatment (in words) (acpP mRNA; 5 µM KFF-ASO conjugates, RNA-seq)
PMO: phosphorodiamidate morpholino 10mer ASO, sequence CTCATACTCT, targeting acpP −5 to +5 (all phosphorodiamidate morpholino (PMO))	+	++	this ability is retained upon conjugation	–
PNA: peptide nucleic acid 10mer ASO, sequence CTCATACTCT, targeting acpP −5 to +5 (all peptide nucleic acid (PNA))	++	++	this ability is retained upon conjugation	reduces the levels of acpP mRNA

Source: paper PMC11098465, “A comparative analysis of peptide-delivered antisense antibiotics using diverse nucleotide mimics” (RNA, 2024)
